Measured values as given in ChEMBL document CHEMBL2169886 (J Med Chem, 2012).

Legend:
clinical [1] = settings: human, in vivo, po, 30 mg
clinical [2] = settings: human, plasma
Rattus norvegicus = species on record: Rattus norvegicus; settings: in vivo, po, BLD = below limit of detection
in vivo [3] = settings: rat
in vivo [4] = settings: rat, po
physchem = settings: buffer, pH 7.4

Compound | Cmax at 1.2 h (clinical [1]) [ng/mL] | AUC (clinical [2]) [ng·h/mL] | F (Rattus norvegicus) | Vd (in vivo [3]) [L/kg] | bioavailability (in vivo [4]) [%] | logD (physchem)
N[C@@H]1CCN(c2cnc3nnn(Cc4ccc5ncccc5c4)c3n2)C1 |  |  | BLD | 3.6 |  | 
c1cnc2ccc(Cn3nnc4ncc(-c5cnn(C6CCNCC6)c5)nc43)cc2c1 |  |  | BLD | 27 |  | 
Nc1cnc2nnn(Cc3ccc4ncccc4c3)c2n1 |  |  |  | 0.95 | 75 | 1.23

Continued, values first:

Cmax at 1.2 h (clinical [1]) [ng/mL] | AUC (clinical [2]) [ng·h/mL] | F (Rattus norvegicus) | Vd (in vivo [3]) [L/kg] | bioavailability (in vivo [4]) [%] | logD (physchem) | Compound
240 | 810 |  |  |  |  | CS(=O)(=O)O.OCCn1cc(-c2cnc3nnn(Cc4ccc5ncccc5c4)c3n2)cn1
 |  |  | 1.6 | 71 | 1.38 | OCCn1cc(-c2cnc3nnn(Cc4ccc5ncccc5c4)c3n2)cn1 [PF-04217903]
